Laboratory results from PubChem BioAssay (NCI).
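Where inhibition never reached the appropriate level, the endpoint shown equals the highest concentration tested. Otherwise, values were interpolated linearly from a five-concentration, 48-hour dose response in 96-well plates. TGI denotes the concentration required for complete inhibition of growth.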

Assays:
Experiment in all cases: NCI tumour cell line growth inhibition, 48 h
786-0 renal = tested on: 786-0 renal
A498 renal = tested on: A498 renal
A549 NSCLC = tested on: A549 NSCLC
ACHN renal = tested on: ACHN renal
BT-549 breast = tested on: BT-549 breast
CAKI-1 renal = tested on: CAKI-1 renal
COLO 205 colon = tested on: COLO 205 colon
DU-145 prostate = tested on: DU-145 prostate
EKVX NSCLC = tested on: EKVX NSCLC
HCC-2998 colon = tested on: HCC-2998 colon
HCT-116 colon = tested on: HCT-116 colon
HCT-15 colon = tested on: HCT-15 colon
HL-60(TB) leukemia = tested on: HL-60(TB) leukemia
HOP-62 NSCLC = tested on: HOP-62 NSCLC
HOP-92 NSCLC = tested on: HOP-92 NSCLC
HS 578T breast = tested on: HS 578T breast
HT29 colon = tested on: HT29 colon
IGROV1 ovarian = tested on: IGROV1 ovarian
K-562 leukemia = tested on: K-562 leukemia
KM12 colon = tested on: KM12 colon
LOX IMVI melanoma = tested on: LOX IMVI melanoma
M14 melanoma = tested on: M14 melanoma
MALME-3M melanoma = tested on: MALME-3M melanoma
MCF7 breast = tested on: MCF7 breast
MDA-MB-231 breast = tested on: MDA-MB-231 breast
MDA-MB-435 = tested on: MDA-MB-435
MDA-N = tested on: MDA-N
MOLT-4 leukemia = tested on: MOLT-4 leukemia
NCI-H226 lung = tested on: NCI-H226 lung
NCI-H23 lung = tested on: NCI-H23 lung
NCI-H460 lung = tested on: NCI-H460 lung
NCI-H522 lung = tested on: NCI-H522 lung
NCI/ADR-RES ovarian = tested on: NCI/ADR-RES ovarian
OVCAR-3 ovarian = tested on: OVCAR-3 ovarian
OVCAR-4 ovarian = tested on: OVCAR-4 ovarian
OVCAR-5 ovarian = tested on: OVCAR-5 ovarian
OVCAR-8 ovarian = tested on: OVCAR-8 ovarian
PC-3 prostate = tested on: PC-3 prostate
RPMI-8226 leukemia = tested on: RPMI-8226 leukemia
RXF 393 renal = tested on: RXF 393 renal
SF-268 CNS = tested on: SF-268 CNS
SF-295 CNS = tested on: SF-295 CNS
SF-539 CNS = tested on: SF-539 CNS
SK-MEL-2 melanoma = tested on: SK-MEL-2 melanoma
SK-MEL-28 melanoma = tested on: SK-MEL-28 melanoma
SK-MEL-5 melanoma = tested on: SK-MEL-5 melanoma
SK-OV-3 ovarian = tested on: SK-OV-3 ovarian
SN12C renal = tested on: SN12C renal
SNB-19 CNS = tested on: SNB-19 CNS
SNB-75 CNS = tested on: SNB-75 CNS
SR leukemia = tested on: SR leukemia
SW-620 colon = tested on: SW-620 colon
T-47D breast = tested on: T-47D breast
TK-10 renal = tested on: TK-10 renal
U251 CNS = tested on: U251 CNS
UACC-257 melanoma = tested on: UACC-257 melanoma
UACC-62 melanoma = tested on: UACC-62 melanoma
UO-31 renal = tested on: UO-31 renal
CCRF-CEM leukemia = tested on: CCRF-CEM leukemia

Work on O=C(/C=C1\C[C@H]2C=Nc3ccccc3C(=O)N2C1)NCCCNC(=O)/C=C1\C[C@H]2C=Nc3ccccc3C(=O)N2C1 yielded a TGI (786-0 renal) of 10.9 µM, a TGI (A498 renal) of 31.5 µM and a TGI (A549 NSCLC) of 46.5 µM. It also gave a TGI (ACHN renal) of 28.1 µM, a TGI (BT-549 breast) of 30.3 µM and a TGI (CAKI-1 renal) of 27.2 µM. For the same compound, the TGI (COLO 205 colon) was 26.2 µM, the TGI (DU-145 prostate) was 35.9 µM and the TGI (EKVX NSCLC) was 38 µM. For the same compound, the TGI (HCC-2998 colon) was 35.1 µM, the TGI (HCT-116 colon) was 30.5 µM and the TGI (HCT-15 colon) was 36.9 µM. It also gave a TGI (HL-60(TB) leukemia) of 32 µM, a TGI (HOP-62 NSCLC) of 35.8 µM and a TGI (HOP-92 NSCLC) of 35.4 µM. It also gave a TGI (HS 578T breast) greater than 100 µM, a TGI (HT29 colon) of 32.2 µM and a TGI (IGROV1 ovarian) of 31 µM. The TGI (K-562 leukemia) was 29.4 µM, the TGI (KM12 colon) was 31.2 µM and the TGI (LOX IMVI melanoma) was 22.6 µM. It also gave a TGI (M14 melanoma) of 28 µM, a TGI (MALME-3M melanoma) of 30 µM and a TGI (MCF7 breast) of 42 µM. The TGI (MDA-MB-231 breast) was 29.7 µM, the TGI (MDA-MB-435) was 34.3 µM and the TGI (MDA-N) was 32.3 µM. It also gave a TGI (MOLT-4 leukemia) of 7.37 µM, a TGI (NCI-H226 lung) of 36.3 µM and a TGI (NCI-H23 lung) of 30.4 µM. The TGI (NCI-H460 lung) was 36.2 µM, the TGI (NCI-H522 lung) was 4.21 µM and the TGI (NCI/ADR-RES ovarian) was 48.4 µM. It also gave a TGI (OVCAR-3 ovarian) of 31.3 µM, a TGI (OVCAR-4 ovarian) of 35.6 µM and a TGI (OVCAR-5 ovarian) of 36.2 µM. It also gave a TGI (OVCAR-8 ovarian) of 33.2 µM, a TGI (PC-3 prostate) of 31.4 µM and a TGI (RPMI-8226 leukemia) of 40 µM. For the same compound, the TGI (RXF 393 renal) was 27.9 µM, the TGI (SF-268 CNS) was 30.8 µM and the TGI (SF-295 CNS) was 36.9 µM. It also gave a TGI (SF-539 CNS) of 34.9 µM, a TGI (SK-MEL-2 melanoma) of 33.6 µM and a TGI (SK-MEL-28 melanoma) of 35.5 µM. For the same compound, the TGI (SK-MEL-5 melanoma) was 30.2 µM, the TGI (SK-OV-3 ovarian) was 36.4 µM and the TGI (SN12C renal) was 37.9 µM. It also gave a TGI (SNB-19 CNS) of 31.4 µM, a TGI (SNB-75 CNS) of 31.1 µM and a TGI (SR leukemia) of 4.62 µM. It also gave a TGI (SW-620 colon) of 28.3 µM, a TGI (T-47D breast) of 60.1 µM and a TGI (TK-10 renal) of 34 µM. For the same compound, the TGI (U251 CNS) was 26.6 µM, the TGI (UACC-257 melanoma) was 30.3 µM and the TGI (UACC-62 melanoma) was 29.3 µM. It also gave a TGI (UO-31 renal) of 28.4 µM.

Compound Nc1cc2c(nc3c4ccccc4c(N)cc3[n+]2-c2cccc3ccccc23)c2ccccc12 (tested in a mixture with another compound) has a TGI (786-0 renal) of 4.22 µM, a TGI (A498 renal) of 16.9 µM and a TGI (A549 NSCLC) of 13.3 µM. It also gave a TGI (ACHN renal) of 9.21 µM, a TGI (BT-549 breast) of 16.3 µM and a TGI (CAKI-1 renal) of 14.6 µM. The TGI (CCRF-CEM leukemia) was 1.31 µM, the TGI (COLO 205 colon) was 7.14 µM and the TGI (DU-145 prostate) was 15.1 µM. For the same compound, the TGI (EKVX NSCLC) was 18.6 µM, the TGI (HCT-116 colon) was 10.7 µM and the TGI (HCT-15 colon) was 25.9 µM. It also gave a TGI (HL-60(TB) leukemia) of 4.53 µM, a TGI (HOP-62 NSCLC) of 17.2 µM and a TGI (HOP-92 NSCLC) of 8.45 µM. It also gave a TGI (HS 578T breast) of 12 µM, a TGI (HT29 colon) of 10.9 µM and a TGI (IGROV1 ovarian) of 10.7 µM. It also gave a TGI (K-562 leukemia) of 4.17 µM, a TGI (KM12 colon) of 9.87 µM and a TGI (LOX IMVI melanoma) of 7.3 µM. For the same compound, the TGI (M14 melanoma) was 6.61 µM, the TGI (MALME-3M melanoma) was 4.14 µM and the TGI (MCF7 breast) was 3.79 µM. It also gave a TGI (MDA-MB-231 breast) of 2.72 µM, a TGI (MDA-MB-435) of 3 µM and a TGI (MDA-N) of 5.27 µM. The TGI (MOLT-4 leukemia) was 4.04 µM, the TGI (NCI-H226 lung) was 28.7 µM and the TGI (NCI-H23 lung) was 4.05 µM. For the same compound, the TGI (NCI-H460 lung) was 1.58 µM, the TGI (NCI-H522 lung) was 7.77 µM and the TGI (NCI/ADR-RES ovarian) was 22.2 µM. The TGI (OVCAR-3 ovarian) was 4.56 µM, the TGI (OVCAR-4 ovarian) was 15.2 µM and the TGI (OVCAR-5 ovarian) was 25.2 µM. For the same compound, the TGI (OVCAR-8 ovarian) was 12.8 µM, the TGI (PC-3 prostate) was 2.9 µM and the TGI (RPMI-8226 leukemia) was 0.851 µM. It also gave a TGI (RXF 393 renal) of 9.33 µM, a TGI (SF-268 CNS) of 18.3 µM and a TGI (SF-295 CNS) of 12.4 µM. The TGI (SF-539 CNS) was 23.8 µM, the TGI (SK-MEL-2 melanoma) was 4.28 µM and the TGI (SK-MEL-28 melanoma) was 20 µM. It also gave a TGI (SK-MEL-5 melanoma) of 6.17 µM, a TGI (SK-OV-3 ovarian) of 17.9 µM and a TGI (SN12C renal) of 13.8 µM. It also gave a TGI (SNB-19 CNS) of 20.2 µM, a TGI (SNB-75 CNS) of 10.6 µM and a TGI (SR leukemia) of 3.56 µM. It also gave a TGI (SW-620 colon) of 9.18 µM, a TGI (T-47D breast) of 16.1 µM and a TGI (TK-10 renal) of 4.55 µM. The TGI (U251 CNS) was 2.61 µM, the TGI (UACC-257 melanoma) was 3.51 µM and the TGI (UACC-62 melanoma) was 21.7 µM. It also gave a TGI (UO-31 renal) of 15.2 µM.
